Assay results from publication PMC5862592, “CDK8/19 inhibition induces premature G1/S transition and ATR-dependent cell death in prostate cancer cells” (Oncotarget, 2018).
Read-outs that look alike come from different tables or passages of the source.

Tests used:
Experiment in all cases: biochemical
Design in all cases: KINOMEscan active site-directed competition binding assay (DiscoveRx), 456 kinases, per cent of control at 300 nM
Details in all cases: read-out: Percent of Control (%)
[1] = target: T1, TYK2(JH2domain-pseudokinase) (Homo sapiens, UniProt P29597)
T1 construct: JH2domain-pseudokinase
Outline: (§1)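 At 300 nmol/L, compounds were assessed for kinase binding in an active site-directed competition format covering 456 kinases.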

LZK = target: T2, LZK (Homo sapiens, UniProt O43283)
T2 construct: gene MAP3K13
T2 sequence (O43283 whole entry): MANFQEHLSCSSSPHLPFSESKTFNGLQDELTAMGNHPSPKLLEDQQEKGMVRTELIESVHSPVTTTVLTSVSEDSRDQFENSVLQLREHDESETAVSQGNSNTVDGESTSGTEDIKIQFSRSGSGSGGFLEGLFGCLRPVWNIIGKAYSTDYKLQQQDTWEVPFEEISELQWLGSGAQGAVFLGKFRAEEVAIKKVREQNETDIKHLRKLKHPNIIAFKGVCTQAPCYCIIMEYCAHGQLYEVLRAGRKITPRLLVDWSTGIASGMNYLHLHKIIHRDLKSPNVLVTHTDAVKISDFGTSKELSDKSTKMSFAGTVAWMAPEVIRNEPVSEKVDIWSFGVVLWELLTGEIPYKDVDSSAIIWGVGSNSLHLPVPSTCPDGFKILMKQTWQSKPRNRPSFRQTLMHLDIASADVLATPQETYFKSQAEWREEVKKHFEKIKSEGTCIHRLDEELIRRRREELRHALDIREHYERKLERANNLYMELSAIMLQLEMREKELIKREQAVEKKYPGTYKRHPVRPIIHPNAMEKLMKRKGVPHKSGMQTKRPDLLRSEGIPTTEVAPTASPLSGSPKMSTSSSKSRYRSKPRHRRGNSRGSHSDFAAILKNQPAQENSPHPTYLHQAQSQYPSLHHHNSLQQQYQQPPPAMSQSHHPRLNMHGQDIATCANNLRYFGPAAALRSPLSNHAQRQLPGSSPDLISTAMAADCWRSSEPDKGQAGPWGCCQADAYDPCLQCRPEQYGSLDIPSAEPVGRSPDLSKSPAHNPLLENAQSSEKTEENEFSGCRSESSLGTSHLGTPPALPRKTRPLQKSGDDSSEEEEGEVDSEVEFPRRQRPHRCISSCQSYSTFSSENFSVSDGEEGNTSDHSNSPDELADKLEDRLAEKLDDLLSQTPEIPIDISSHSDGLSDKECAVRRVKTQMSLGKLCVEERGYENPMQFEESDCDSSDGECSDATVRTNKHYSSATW
Outline: as §1

PIK3CA(E545K) = PIK3CA(E545K) (Homo sapiens, UniProt P42336, E545K)
Outline: as §1

[2] = target: T3, RSK1(Kin.Dom.2-C-terminal) (Homo sapiens, UniProt Q15418)
T3 construct: gene RPS6KA1; Kin.Dom.2-C-terminal
T3 sequence (Q15418 whole entry): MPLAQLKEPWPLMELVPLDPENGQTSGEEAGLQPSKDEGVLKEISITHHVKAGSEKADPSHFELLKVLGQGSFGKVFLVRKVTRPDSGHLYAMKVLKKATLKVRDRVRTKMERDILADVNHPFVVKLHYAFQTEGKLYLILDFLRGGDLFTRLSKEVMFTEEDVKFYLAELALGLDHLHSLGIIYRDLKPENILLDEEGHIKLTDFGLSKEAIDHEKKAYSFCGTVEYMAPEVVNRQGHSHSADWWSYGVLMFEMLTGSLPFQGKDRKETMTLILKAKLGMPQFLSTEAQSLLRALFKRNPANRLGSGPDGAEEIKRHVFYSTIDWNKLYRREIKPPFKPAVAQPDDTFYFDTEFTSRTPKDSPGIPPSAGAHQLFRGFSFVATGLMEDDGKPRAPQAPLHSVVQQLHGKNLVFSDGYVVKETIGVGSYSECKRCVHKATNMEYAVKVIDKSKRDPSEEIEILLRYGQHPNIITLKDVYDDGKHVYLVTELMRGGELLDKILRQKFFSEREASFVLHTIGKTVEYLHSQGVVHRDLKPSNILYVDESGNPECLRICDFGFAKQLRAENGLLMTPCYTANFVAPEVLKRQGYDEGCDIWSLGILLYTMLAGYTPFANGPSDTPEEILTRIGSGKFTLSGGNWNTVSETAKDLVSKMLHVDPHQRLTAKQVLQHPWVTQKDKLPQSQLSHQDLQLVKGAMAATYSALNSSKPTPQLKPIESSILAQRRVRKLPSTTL
Outline: as §1

OSR1 = target: T4, OSR1 (Homo sapiens, UniProt O95747)
T4 construct: gene OXSR1
Outline: as §1

LRRK2(G2019S) = LRRK2(G2019S) (Homo sapiens, UniProt Q5S007, G2019S)
Outline: as §1

PRKD3 = PRKD3 (Homo sapiens, UniProt O94806)
Outline: as §1

RET(M918T) = RET(M918T) (Homo sapiens, UniProt P07949, M918T)
Chain of RET(M918T) (P07949 whole entry M918T): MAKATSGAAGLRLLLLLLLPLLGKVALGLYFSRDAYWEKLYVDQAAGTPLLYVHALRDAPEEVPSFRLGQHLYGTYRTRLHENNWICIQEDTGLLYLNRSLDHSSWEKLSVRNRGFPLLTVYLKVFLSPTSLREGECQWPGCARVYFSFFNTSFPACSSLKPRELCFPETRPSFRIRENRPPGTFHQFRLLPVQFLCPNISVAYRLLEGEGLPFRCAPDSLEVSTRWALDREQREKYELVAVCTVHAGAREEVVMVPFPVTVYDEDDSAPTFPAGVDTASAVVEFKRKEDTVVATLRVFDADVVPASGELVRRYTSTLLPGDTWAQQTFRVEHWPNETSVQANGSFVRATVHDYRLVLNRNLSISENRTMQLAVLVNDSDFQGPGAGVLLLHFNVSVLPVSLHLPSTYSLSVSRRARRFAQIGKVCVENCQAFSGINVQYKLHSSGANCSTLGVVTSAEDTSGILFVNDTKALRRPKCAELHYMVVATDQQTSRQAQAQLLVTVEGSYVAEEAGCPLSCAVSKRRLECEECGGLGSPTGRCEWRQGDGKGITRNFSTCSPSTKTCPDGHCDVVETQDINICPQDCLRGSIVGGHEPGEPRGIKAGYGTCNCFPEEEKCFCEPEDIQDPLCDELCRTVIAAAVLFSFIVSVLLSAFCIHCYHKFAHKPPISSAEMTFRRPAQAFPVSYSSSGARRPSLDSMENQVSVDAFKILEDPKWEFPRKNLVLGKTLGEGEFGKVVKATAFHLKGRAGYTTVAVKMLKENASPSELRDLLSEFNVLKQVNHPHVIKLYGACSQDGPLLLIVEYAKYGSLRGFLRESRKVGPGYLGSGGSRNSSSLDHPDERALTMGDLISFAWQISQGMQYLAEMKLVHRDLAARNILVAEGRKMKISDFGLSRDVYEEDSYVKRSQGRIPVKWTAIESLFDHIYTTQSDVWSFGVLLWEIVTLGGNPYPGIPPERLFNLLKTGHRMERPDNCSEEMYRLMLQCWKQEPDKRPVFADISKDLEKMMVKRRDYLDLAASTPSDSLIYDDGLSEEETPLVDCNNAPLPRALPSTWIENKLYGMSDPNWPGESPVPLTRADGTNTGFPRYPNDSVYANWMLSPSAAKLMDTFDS
Outline: as §1

PRKCD = PRKCD (Homo sapiens, UniProt Q05655)
Chain of PRKCD (Q05655 whole entry): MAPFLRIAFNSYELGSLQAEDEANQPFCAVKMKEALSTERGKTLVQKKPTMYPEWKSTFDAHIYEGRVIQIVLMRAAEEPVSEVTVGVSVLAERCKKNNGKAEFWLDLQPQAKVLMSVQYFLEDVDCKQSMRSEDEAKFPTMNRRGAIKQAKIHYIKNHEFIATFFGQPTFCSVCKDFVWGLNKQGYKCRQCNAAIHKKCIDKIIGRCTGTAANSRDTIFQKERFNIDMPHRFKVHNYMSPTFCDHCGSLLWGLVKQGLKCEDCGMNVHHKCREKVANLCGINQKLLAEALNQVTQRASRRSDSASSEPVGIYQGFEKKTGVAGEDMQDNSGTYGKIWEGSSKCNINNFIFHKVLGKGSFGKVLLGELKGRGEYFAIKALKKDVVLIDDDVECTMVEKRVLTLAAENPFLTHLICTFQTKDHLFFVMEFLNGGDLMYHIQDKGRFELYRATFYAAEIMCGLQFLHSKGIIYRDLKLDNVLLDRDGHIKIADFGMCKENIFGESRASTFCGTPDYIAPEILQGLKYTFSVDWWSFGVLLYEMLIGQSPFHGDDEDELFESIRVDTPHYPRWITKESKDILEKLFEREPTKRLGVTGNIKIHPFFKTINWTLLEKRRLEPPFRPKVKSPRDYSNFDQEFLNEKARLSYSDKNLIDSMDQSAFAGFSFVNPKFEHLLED
Outline: as §1

YANK2 = target: T5, YANK2 (Homo sapiens, UniProt Q9NY57)
T5 construct: gene STK32B
T5 sequence (Q9NY57 whole entry): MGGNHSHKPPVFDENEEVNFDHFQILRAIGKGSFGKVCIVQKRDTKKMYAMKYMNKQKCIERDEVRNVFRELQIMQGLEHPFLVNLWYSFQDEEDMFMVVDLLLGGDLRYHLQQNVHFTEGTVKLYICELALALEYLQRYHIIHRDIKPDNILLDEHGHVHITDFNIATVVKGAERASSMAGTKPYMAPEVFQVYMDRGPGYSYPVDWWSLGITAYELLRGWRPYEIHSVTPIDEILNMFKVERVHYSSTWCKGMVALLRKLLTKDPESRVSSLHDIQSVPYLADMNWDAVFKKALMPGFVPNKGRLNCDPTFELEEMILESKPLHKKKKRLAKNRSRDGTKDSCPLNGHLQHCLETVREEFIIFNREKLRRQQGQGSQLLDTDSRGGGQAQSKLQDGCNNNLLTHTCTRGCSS
Outline: as §1

[3] = target: T6, ABL1(Q252H)-nonphosphorylated (Homo sapiens, UniProt P00519, Q252H)
T6 construct: nonphosphorylated
Outline: as §1

PRP4 = target: T7, PRP4 (Homo sapiens, UniProt Q13523)
T7 construct: gene PRPF4B
Outline: as §1

CAMK1D = CAMK1D (Homo sapiens, UniProt Q8IU85)
Outline: as §1

JNK2 = target: T8, JNK2 (Homo sapiens, UniProt P45984)
T8 construct: gene MAPK9
Outline: as §1

NEK2 = NEK2 (Homo sapiens, UniProt P51955)
Chain of NEK2 (P51955 whole entry): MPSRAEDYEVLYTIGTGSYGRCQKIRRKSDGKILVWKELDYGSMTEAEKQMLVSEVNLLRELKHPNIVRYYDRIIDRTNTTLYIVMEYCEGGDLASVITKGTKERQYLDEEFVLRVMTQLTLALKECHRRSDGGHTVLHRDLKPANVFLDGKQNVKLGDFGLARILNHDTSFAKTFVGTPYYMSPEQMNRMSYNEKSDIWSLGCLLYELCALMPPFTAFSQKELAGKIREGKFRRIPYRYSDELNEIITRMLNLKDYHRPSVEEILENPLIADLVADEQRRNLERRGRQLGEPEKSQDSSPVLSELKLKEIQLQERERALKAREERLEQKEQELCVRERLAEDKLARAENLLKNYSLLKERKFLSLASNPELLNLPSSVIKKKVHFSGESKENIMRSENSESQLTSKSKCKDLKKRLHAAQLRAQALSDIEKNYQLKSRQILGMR
Outline: as §1

MAP3K15 = MAP3K15 (Homo sapiens, UniProt Q6ZN16)
Outline: as §1

TEC = TEC (Homo sapiens, UniProt P42680)
Outline: as §1

PIK3CA(M1043I) = PIK3CA(M1043I) (Homo sapiens, UniProt P42336, M1043I)
Outline: as §1

EPHA2 = EPHA2 (Homo sapiens, UniProt P29317)
Outline: as §1

IKK-epsilon = target: T9, IKK-epsilon (Homo sapiens, UniProt Q14164)
T9 construct: gene IKBKE
T9 sequence (Q14164 whole entry): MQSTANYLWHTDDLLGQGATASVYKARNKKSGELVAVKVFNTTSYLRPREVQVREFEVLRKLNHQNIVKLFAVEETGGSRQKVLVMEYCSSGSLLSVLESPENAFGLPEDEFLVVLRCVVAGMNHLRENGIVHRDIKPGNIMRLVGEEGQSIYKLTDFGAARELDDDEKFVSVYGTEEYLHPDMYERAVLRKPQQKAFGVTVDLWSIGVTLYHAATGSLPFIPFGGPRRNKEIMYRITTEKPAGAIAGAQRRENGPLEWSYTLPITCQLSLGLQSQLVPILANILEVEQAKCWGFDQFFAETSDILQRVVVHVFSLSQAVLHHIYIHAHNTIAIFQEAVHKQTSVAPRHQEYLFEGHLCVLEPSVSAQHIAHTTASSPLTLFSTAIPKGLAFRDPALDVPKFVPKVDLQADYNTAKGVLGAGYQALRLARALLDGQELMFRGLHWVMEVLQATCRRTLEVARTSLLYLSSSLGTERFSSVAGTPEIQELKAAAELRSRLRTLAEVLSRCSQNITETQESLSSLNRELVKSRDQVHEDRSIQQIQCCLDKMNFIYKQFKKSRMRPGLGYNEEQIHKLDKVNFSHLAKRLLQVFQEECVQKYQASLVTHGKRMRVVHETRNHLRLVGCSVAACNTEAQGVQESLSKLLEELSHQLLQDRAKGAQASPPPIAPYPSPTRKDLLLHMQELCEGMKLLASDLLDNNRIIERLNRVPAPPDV
Outline: as §1

MYLK2 = MYLK2 (Homo sapiens, UniProt Q9H1R3)
Outline: as §1

Structure (SMILES): Cc1ncccc1Oc1sc(C(N)=O)c2c1-c1c(cnn1C)CC2 [T-474, 1-methyl-8-((2-methylpyridin-3-yl)oxy)-4,5-dihydro-1H-thieno[3,4-g]indazole-6-carboxamide]
- remaining binding at 0.3 µM [1]: 100%
- remaining binding at 0.3 µM (LZK): 100%
- remaining binding at 0.3 µM (PIK3CA(E545K)): 100%
- remaining binding at 0.3 µM [2]: 100%
- remaining binding at 0.3 µM (OSR1): 60%
- remaining binding at 0.3 µM (LRRK2(G2019S)): 88%
- remaining binding at 0.3 µM (PRKD3): 100%
- remaining binding at 0.3 µM (RET(M918T)): 100%
- remaining binding at 0.3 µM (PRKCD): 96%
- remaining binding at 0.3 µM (YANK2): 100%
- remaining binding at 0.3 µM [3]: 100%
- remaining binding at 0.3 µM (PRP4): 89%
- remaining binding at 0.3 µM (CAMK1D): 79%
- remaining binding at 0.3 µM (JNK2): 87%
- remaining binding at 0.3 µM (NEK2): 100%
- remaining binding at 0.3 µM (MAP3K15): 100%
- remaining binding at 0.3 µM (TEC): 100%
- remaining binding at 0.3 µM (PIK3CA(M1043I)): 100%
- remaining binding at 0.3 µM (EPHA2): 86%
- remaining binding at 0.3 µM (IKK-epsilon): 100%
- remaining binding at 0.3 µM (MYLK2): 92%

Structure (SMILES): O=C(/C=C/c1cnccc1-c1ccc(F)cc1)Nc1ccc(CCc2nnco2)cc1 [T-418, (2E)-3-(4-(4-fluorophenyl)pyridin-3-yl)-N-(4-(2-(1,3,4-oxadiazol-2-yl)ethyl)phenyl)acrylamide]
- remaining binding at 0.3 µM ([1]; sheet T-418): 100%
- remaining binding at 0.3 µM (LZK; sheet T-418): 96%
- remaining binding at 0.3 µM (PIK3CA(E545K); sheet T-418): 82%
- remaining binding at 0.3 µM ([2]; sheet T-418): 100%
- remaining binding at 0.3 µM (OSR1; sheet T-418): 53%
- remaining binding at 0.3 µM (LRRK2(G2019S); sheet T-418): 84%
- remaining binding at 0.3 µM (PRKD3; sheet T-418): 100%
- remaining binding at 0.3 µM (RET(M918T); sheet T-418): 98%
- remaining binding at 0.3 µM (PRKCD; sheet T-418): 100%
- remaining binding at 0.3 µM (YANK2; sheet T-418): 78%
- remaining binding at 0.3 µM ([3]; sheet T-418): 83%
- remaining binding at 0.3 µM (PRP4; sheet T-418): 82%
- remaining binding at 0.3 µM (CAMK1D; sheet T-418): 94%
- remaining binding at 0.3 µM (JNK2; sheet T-418): 86%
- remaining binding at 0.3 µM (NEK2; sheet T-418): 100%
- remaining binding at 0.3 µM (MAP3K15; sheet T-418): 100%
- remaining binding at 0.3 µM (TEC; sheet T-418): 98%
- remaining binding at 0.3 µM (PIK3CA(M1043I); sheet T-418): 100%
- remaining binding at 0.3 µM (EPHA2; sheet T-418): 100%
- remaining binding at 0.3 µM (IKK-epsilon; sheet T-418): 100%
- remaining binding at 0.3 µM (MYLK2; sheet T-418): 62%
